Laboratory results as given in PMC3501554 (Drug and alcohol dependence, 2012).

Key:
[1] = following inhalation of 200 mg incinerated marijuana; ref Wilson et al., 2006; cited from earlier work
[2] = tested on: C57BL/6J mice; experiment: Observable effects; type: in vivo; settings: Rimonabant (3 mg/kg s.c., 10 min before) / 50 mg placebo smoke

| SMILES | Brain concentration of THC [1] [ng/g] | Hyperreflexia, percentage of mice showing presence of observable effect [2] [%] | Ptosis, percentage of mice showing presence of observable effect [2] [%] | Straub Tail, percentage of mice showing presence of observable effect [2] [%] |
| --- | --- | --- | --- | --- |
| CCCCCc1cc(O)c2c(c1)OC(C)(C)[C@@H]1CCC(C)=C[C@@H]21 [THC, Δ^9-tetrahydrocannabinol] | 433 ± 66 | – | – | – |
| Cc1c(C(=O)NN2CCCCC2)nn(-c2ccc(Cl)cc2Cl)c1-c1ccc(Cl)cc1 [Rimonabant] | – | 0 | 0 | 0 |
